Data on 18 compounds can be found in US12612411B1, “Imidazopyrazine derivatives, process for preparation thereof, and their uses as luciferins” (INSTITUT PASTEUR, priority 2017, dated 2026).

The test addresses T1, nanoKAZ luciferase (Oplophorus gracilirostris, UniProt Q9GV45, A31E/A60N/A81I/F95D/I117V/K70R/L54V/L99Q/M102K/N193R/P142E/Q151K/Q38R/Q45L/V71I/Y165I).
T1 construct: luciferase catalytic domain (nanoKAZ, 19 kDa) from the Oplophorus-derived luciferase; host or cells: cell-free: 1-Step Human Coupled IVT Kit, pT7CFE1-based vector
Nature of the test: In vitro bioluminescence screening of imidazo[1,2-a]pyrazin-3(7H)-ones with nanoKAZ expressed in vitro (96-well luminometer, 2 h kinetic). The format is biochemical. The note with it: furimazine = 1. Here is the method:
General protocol for the generation of solutions of imidazo[1,2-a]pyrazin-3(7H)-one Q by acidic hydrolysis of imidazo[1,2-a]pyrazin-3-yl acetate derivatives P. The considered acetate P (1 mg) was dissolved in DMSO (0.2 mL) and then diluted by adding a solution of acidic ethanol (0.3 ml) made from the addition of 37% hydrochloric acid (100 μl) on 100% ethanol (12 mL). This 0.5 mL solution was incubated at 50° C. for 2 hours to give a stock solution which was then stored at −80° C. […] Nota: these conditions are only adapted to the hydrolysis of the protecting group (as defined above) of the oxygen on position 2 of the imidazo[1,2-a]pyrazine ring system and not to the hydrolysis of any additional acetyl groups eventually present elsewhere on the substrate of this reaction.
The representative bioluminescence curves shown in the FIG. 2 provided an assessment for furimazine (Q-1), 8-benzyl-2-(furan-2-ylmethyl)-6-(4-hydroxyphenyl)imidazo[1,2-a]pyrazin-3 (7/1)-one (Q-80), 8-(2-fluorobenzyl)-2-(furan-2-ylmethyl)-6-phenylimidazo[1,2-a]pyrazin-3(7H)-one (Q-84), and 8-(2-fluorobenzyl)-2-((5-methylfuran-2-yl)methyl)-6-phenylimidazo[1,2-a]pyrazin-3(7H)-one (Q-85) was obtained using a luciferase expressed in vitro as described in the following. The nanoKAZ DNA template was cloned into Thermo Scientific pT7CFE1-based vector and nanoKAZ was expressed using ThermoFisher Scientific 1-Step Human Coupled IVT Kit—DNA (ref. 88881) according to the manufacturer instructions. The resulting reaction mix was diluted 400 times in buffer (DPBS (Gibco)+0.1% (v/v) Tween 20) and conserved at −80° C. The screening of the imidazo[1,2-a]pyrazin-3(7H)-ones was performed in 96 well plates using 50 μL/well of a 1/20 dilution in DPBS (Gibco)+0.1% (v/v) Tween 20 of the nanoKAZ solution.
To illustrate the bioluminescence properties improvement achieved for many of the imidazo[1,2-a]pyrazin-3(7H)-ones described here, four values are provided in Table 1: maximum intensity (V1), signal half-life (V2), area under the curve for ten minutes (V3), and area under the curve for two hours (V4), normalized using furimazine (Q-1) as a reference.
The bioluminescence properties of the tested compounds are considered to be improved when at least one of the values V1-V4 is above 1, and when none of the V1-V4 values is 0.05 or below.
By following the hydrolysis protocol described above, the following imidazo[1,2-a]pyrazin-3(7H)-ones luciferins Q were made in situ from the corresponding O-protected imidazo[1,2-a]pyrazines P and evaluated for their bioluminescence properties (maximum intensity (V1), signal half-life (V2), area under the curve for […], normalized using furimazine (Q-1) as a reference): […]

The mark [1] stands for this setting: second table, luciferins made in situ from O-protected P.

T1 sequence (Q9GV45 other isoform, or with tags, fused parts or gaps with the stated changes): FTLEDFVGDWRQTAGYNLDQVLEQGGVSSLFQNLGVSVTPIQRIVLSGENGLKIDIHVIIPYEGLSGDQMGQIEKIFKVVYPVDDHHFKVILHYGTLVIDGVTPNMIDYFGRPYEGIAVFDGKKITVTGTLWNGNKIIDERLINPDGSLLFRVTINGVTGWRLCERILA

For the compound `O=c1c(Cc2ccccc2)nc2c(Cc3ccccc3F)[nH]c(-c3ccccc3)cn1-2` [Q-72, 2-benzyl-8-(2-fluorobenzyl)-6-phenylimidazo[1,2-a]pyrazin-3(7H)-one], where the note is “Table 1”, the “V1: maximum intensity, normalized using furimazine (Q-1) as a reference” value (“V1: maximum intensity, normalized” below) is given as 1.49; the “V3: area under the curve for ten minutes, normalized using furimazine (Q-1) as a reference” value is on record as 1.49; the “V4: area under the curve for two hours, normalized using furimazine (Q-1) as a reference” value turned out to be 0.85.

As to `O=c1c(Cc2ccccc2)nc2c(Cc3cccc(F)c3)[nH]c(-c3ccccc3)cn1-2` [Q-73, 2-benzyl-8-(3-fluorobenzyl)-6-phenylimidazo[1,2-a]pyrazin-3(7H)-one], for the setting “Table 1”, the “V1: maximum intensity, normalized” value was determined as 1.12; the “V3: area under the curve for ten minutes, normalized using furimazine (Q-1) as a reference” value turned out to be 1.19; the “V4: area under the curve for two hours, normalized using furimazine (Q-1) as a reference” value is listed as 0.92.

For the compound `O=c1c(Cc2ccccc2)nc2c(Cc3ccccc3)[nH]c(-c3ccc(O)cc3)cn1-2` [Q-75, 2,8-dibenzyl-6-(4-hydroxyphenyl)imidazo[1,2-a]pyrazin-3(7H)-one, reference compound], under “Table 1”, the “V1: maximum intensity, normalized” value was 2.03; the “V3: area under the curve for ten minutes, normalized using furimazine (Q-1) as a reference” value worked out at 0.45; the “V4: area under the curve for two hours, normalized using furimazine (Q-1) as a reference” value is recorded as 0.11.

Turning to `O=c1c(Cc2ccco2)nc2c(Cc3ccccc3)[nH]c(-c3ccc(O)cc3)cn1-2` [Q-80, 8-benzyl-2-(furan-2-ylmethyl)-6-(4-hydroxyphenyl)imidazo[1,2-a]pyrazin-3(7H)-one, reference compound], where the note is “Table 1”, the “V1: maximum intensity, normalized” value was 3.06; the “V3: area under the curve for ten minutes, normalized using furimazine (Q-1) as a reference” value is 0.79; the “V4: area under the curve for two hours, normalized using furimazine (Q-1) as a reference” value stood at 0.14.

Take `O=c1c(Cc2ccco2)nc2c(Cc3cccc(F)c3)[nH]c(-c3ccccc3)cn1-2` [Q-81, 8-(3-fluorobenzyl)-2-(furan-2-ylmethyl)-6-phenylimidazo[1,2-a]pyrazin-3(7H)-one]: for the setting “Table 1”, the “V1: maximum intensity, normalized” value came to 0.82; the “V3: area under the curve for ten minutes, normalized using furimazine (Q-1) as a reference” value is 0.92; the “V4: area under the curve for two hours, normalized using furimazine (Q-1) as a reference” value came out at 1.31.

As to `Cc1cccc(Cc2nc3c(Cc4ccccc4F)[nH]c(-c4ccccc4)cn-3c2=O)c1` [Q-82, 8-(2-fluorobenzyl)-2-(3-methylbenzyl)-6-phenylimidazo[1,2-a]pyrazin-3(7H)-one], for the setting “Table 1”, the “V1: maximum intensity, normalized” value came to 1.36; the “V3: area under the curve for ten minutes, normalized using furimazine (Q-1) as a reference” value was 1.38; the “V4: area under the curve for two hours, normalized using furimazine (Q-1) as a reference” value came out at 0.84.

Turning to `COc1cccc(Cc2nc3c(Cc4ccccc4F)[nH]c(-c4ccccc4)cn-3c2=O)c1` [Q-83, 8-(2-fluorobenzyl)-2-(3-methoxybenzyl)-6-phenylimidazo[1,2-a]pyrazin-3(7H)-one], where the note is “Table 1”, the “V1: maximum intensity, normalized” value is 1.46; the “V3: area under the curve for ten minutes, normalized using furimazine (Q-1) as a reference” value was found to be 1.49; the “V4: area under the curve for two hours, normalized using furimazine (Q-1) as a reference” value is 1.12.

Turning to `O=c1c(Cc2ccco2)nc2c(Cc3ccccc3F)[nH]c(-c3ccccc3)cn1-2` [Q-84, 8-(2-fluorobenzyl)-2-(furan-2-ylmethyl)-6-phenylimidazo[1,2-a]pyrazin-3(7H)-one], for the setting “Table 1”, the “V1: maximum intensity, normalized” value amounted to 0.84; the “V3: area under the curve for ten minutes, normalized using furimazine (Q-1) as a reference” value is on record as 0.91; the “V4: area under the curve for two hours, normalized using furimazine (Q-1) as a reference” value came to 1.18.

For `Cc1ccc(Cc2nc3c(Cc4ccccc4F)[nH]c(-c4ccccc4)cn-3c2=O)o1` [Q-85, 8-(2-fluorobenzyl)-2-((5-methylfuran-2-yl)methyl)-6-phenylimidazo[1,2-a]pyrazin-3(7H)-one], where the note is “Table 1”, the “V1: maximum intensity, normalized” value was found to be 2.3; the “V3: area under the curve for ten minutes, normalized using furimazine (Q-1) as a reference” value came out at 2.4; the “V4: area under the curve for two hours, normalized using furimazine (Q-1) as a reference” value is listed as 1.81.

Take `CCc1ccc(Cc2nc3c(Cc4ccccc4F)[nH]c(-c4ccccc4)cn-3c2=O)o1` [Q-96, 2-((5-ethylfuran-2-yl)methyl)-8-(2-fluorobenzyl)-6-phenylimidazo[1,2-a]pyrazin-3(7H)-one]: where the note is “Table 1”, the “V1: maximum intensity, normalized” value was 2.51; the “V3: area under the curve for ten minutes, normalized using furimazine (Q-1) as a reference” value stood at 2.68; the “V4: area under the curve for two hours, normalized using furimazine (Q-1) as a reference” value is given as 1.98.

For `Cc1ccc(Cc2nc3c(Cc4cccc(F)c4)[nH]c(-c4ccccc4)cn-3c2=O)o1` [Q-97, 8-(3-fluorobenzyl)-2-((5-methylfuran-2-yl)methyl)-6-phenylimidazo[1,2-a]pyrazin-3(7H)-one], where the note is “Table 1”, the “V1: maximum intensity, normalized” value turned out to be 2.04; the “V3: area under the curve for ten minutes, normalized using furimazine (Q-1) as a reference” value is recorded as 2.20; the “V4: area under the curve for two hours, normalized using furimazine (Q-1) as a reference” value was 2.04.

With `Cc1ccc(Cc2nc3c(Cc4ccccc4Cl)[nH]c(-c4ccccc4)cn-3c2=O)o1` [Q-98, 8-(2-chlorobenzyl)-2-((5-methylfuran-2-yl)methyl)-6-phenylimidazo[1,2-a]pyrazin-3(7H)-one], where the note is “Table 1”, the “V1: maximum intensity, normalized” value is on record as 1.18; the “V3: area under the curve for ten minutes, normalized using furimazine (Q-1) as a reference” value came out at 1.28; the “V4: area under the curve for two hours, normalized using furimazine (Q-1) as a reference” value turned out to be 1.20.

Take `CCc1ccc(Cc2nc3c(Cc4cccc(F)c4)[nH]c(-c4ccccc4)cn-3c2=O)o1` [Q-99, 2-((5-ethylfuran-2-yl)methyl)-8-(3-fluorobenzyl)-6-phenylimidazo[1,2-a]pyrazin-3(7H)-one]: where the note is “Table 1”, the “V1: maximum intensity, normalized” value was determined as 1.99; the “V3: area under the curve for ten minutes, normalized using furimazine (Q-1) as a reference” value is reported as 2.13; the “V4: area under the curve for two hours, normalized using furimazine (Q-1) as a reference” value is given as 2.08.

`Cc1cccc(Cc2nc3c(Cc4cccc(F)c4)[nH]c(-c4ccccc4)cn-3c2=O)c1` [Q-100, 8-(3-fluorobenzyl)-2-(3-methylbenzyl)-6-phenylimidazo[1,2-a]pyrazin-3(7H)-one]: for the setting “Table 1”, the “V1: maximum intensity, normalized” value amounted to 1.25; the “V3: area under the curve for ten minutes, normalized using furimazine (Q-1) as a reference” value amounted to 1.33; the “V4: area under the curve for two hours, normalized using furimazine (Q-1) as a reference” value was 1.04.

As for `Cc1ccc(Cc2nc3c(Cc4cccc(F)c4)[nH]c(-c4ccccc4F)cn-3c2=O)o1` [Q-105, 8-(3-fluorobenzyl)-6-(2-fluorophenyl)-2-((5-methylfuran-2-yl)methyl)imidazo[1,2-a]pyrazin-3(7H)-one], where the note is “second table”, the “V3: area under the curve for 2 hours, normalized using furimazine (Q-1) as a reference” value is 2.01 and the “V4: area under the curve for ten minutes, normalized using furimazine (Q-1) as a reference” value was determined as 1.72. For the same compound, the “V1: maximum intensity, normalized” value under setting [1] was 2.04.

Turning to `O=c1c(Cc2ccco2)nc2c(Cc3cccc(F)c3F)[nH]c(-c3ccccc3)cn1-2` [Q-107, 8-(2,3-difluorobenzyl)-2-(furan-2-ylmethyl)-6-phenylimidazo[1,2-a]pyrazin-3(7H)-one], under “second table”, the “V3: area under the curve for 2 hours, normalized using furimazine (Q-1) as a reference” value is 1.04 and the “V4: area under the curve for ten minutes, normalized using furimazine (Q-1) as a reference” value is recorded as 1.27. In addition, the “V1: maximum intensity, normalized” value under setting [1] is on record as 1.03.

`Cc1ccc(Cc2nc3c(Cc4cccc(F)c4F)[nH]c(-c4ccccc4)cn-3c2=O)o1` [Q-108, 8-(2,3-difluorobenzyl)-2-((5-methylfuran-2-yl)methyl)-6-phenylimidazo[1,2-a]pyrazin-3(7H)-one]: where the note is “second table”, the “V3: area under the curve for 2 hours, normalized using furimazine (Q-1) as a reference” value is 3.09 and the “V4: area under the curve for ten minutes, normalized using furimazine (Q-1) as a reference” value was 2.1. The “V1: maximum intensity, normalized” value under setting [1] is listed as 3.15.

For the compound `O=c1c(Cc2ccccc2)nc2c(Cc3cccc(F)c3F)[nH]c(-c3ccccc3)cn1-2` [Q-117, 2-benzyl-8-(2,3-difluorobenzyl)-6-phenylimidazo[1,2-a]pyrazin-3(7H)-one], for the setting “second table”, the “V3: area under the curve for 2 hours, normalized using furimazine (Q-1) as a reference” value amounted to 1.94 and the “V4: area under the curve for ten minutes, normalized using furimazine (Q-1) as a reference” value worked out at 0.7. Moreover, the “V1: maximum intensity, normalized” value under setting [1] is reported as 2.31.
